One assay concerns isolated rat bladder. Description: Transmural electrical field stimulation-induced contraction of isolated rat bladder. Conditions: AUC of contractile response, value before treatment = 100%, SD female rat bladder strip, read-out: Enhancement rate of isolated bladder contraction (% of pre). The procedure: Effects on Transmural Electrical Field Stimulation-Induced Contraction of Isolated Rat Bladder
As an effect on the nerve stimulation-dependent bladder contraction in vitro, the effect of the Example compound of the present invention in the transmural electrical field stimulation-induced contraction of isolated rat bladder was measured by the following method. That is, from the bladder isolated from a Spraque-Dawley (SD) female rat (Japan SLC, Inc.), a longitudinal bladder strip having a width of about 2 mm and a length of about 10 mm was prepared. The prepared bladder strip was suspended in an organ bath filled with 10 mL of a Krebs-Henseleit solution. The Krebs-Henseleit solution was bubbled with 95% O2 and 5% CO2, and kept at 37° C. After stabilization at an initial tension of 1 g, contraction was induced twice with 60 mM KCl. The strip was washed with the Krebs-Henseleit solution and stabilized, and then contraction was induced with transmural electrical field stimulation at 20 V (stimulation frequency of 8 Hz, pulse width of 0.3 msec, and stimulation time of 10 seconds) by an electrical stimulation device (Nihon Kohden Corporation). At an interval of 2 minutes, transmural electrical field stimulation was repeated and the voltage was adjusted to make the contractile amplitude about 50% of the contractile response by 20 V. After stabilization of the contraction by the transmural electrical field stimulation, 10 μL of the test substance (final concentrations of 3 μM, 10 μM, and 30 μM), which had been dissolved in 100% dimethylsulfoxide in advance was added. The test substance was cumulatively administered at the next concentration after the contractile response at a lower concentration had been stabilized. The responses were put into a personal computer through PowerLab (registered trademark) (AD Instruments), and analyzed with LabChart (registered trademark) (AD Instruments). The area under the response of each contractile response (area under curve, AUC) was calculated and the value before the treatment with the test substance was set to 100%. Based on this, the enhancement rate of the isolated bladder contraction (% of pre) after the treatment with the test substance was calculated.
The enhancement rates of the isolated bladder contraction due to several 10 μM Example compounds which are the compounds of the formula (I) are shown in Table 2.

The target in a further assay is T1, human c-Mpl receptor (Homo sapiens, UniProt P40238).
T1 construct: expressed in transfected cells
T1 sequence (P40238 26-635): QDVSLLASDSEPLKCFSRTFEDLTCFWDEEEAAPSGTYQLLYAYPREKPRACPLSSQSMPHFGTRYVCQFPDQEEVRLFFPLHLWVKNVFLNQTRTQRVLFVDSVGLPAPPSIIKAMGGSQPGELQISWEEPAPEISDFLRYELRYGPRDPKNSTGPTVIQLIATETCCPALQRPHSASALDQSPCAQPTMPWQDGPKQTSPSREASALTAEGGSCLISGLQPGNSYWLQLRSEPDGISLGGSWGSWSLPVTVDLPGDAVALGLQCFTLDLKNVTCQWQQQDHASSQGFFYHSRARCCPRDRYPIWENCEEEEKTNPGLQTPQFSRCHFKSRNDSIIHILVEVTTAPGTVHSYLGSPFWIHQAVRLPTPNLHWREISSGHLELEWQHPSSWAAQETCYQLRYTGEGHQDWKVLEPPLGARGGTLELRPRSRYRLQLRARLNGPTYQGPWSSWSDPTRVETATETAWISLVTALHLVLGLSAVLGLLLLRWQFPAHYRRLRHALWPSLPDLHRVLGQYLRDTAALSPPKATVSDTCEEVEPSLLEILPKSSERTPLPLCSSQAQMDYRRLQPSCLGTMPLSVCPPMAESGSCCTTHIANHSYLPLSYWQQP
Description: Human c-Mpl-introduced Ba/F3 cell proliferative activity. Conditions: concentration showing 30% proliferation; 100% = positive control at 1 μM. Type of assay: cell-based. The procedure: Evaluation of Human c-Mpl-Introduced Ba/F3 Cell Proliferative Activity
The human c-Mpl-introduced Ba/F3 cell proliferative activity was measured by the following method.
As a positive control, 1-(5-{[4-(4-chloro-2-thienyl)-5-{[(2R)-2-methylpyrrolidin-1-yl]methyl}-1,3-thiazol-2-yl]carbamoyl}-3-fluoropyridin-2-yl)piperidine-4-carboxylic acid hydrochloride, which is disclosed as Example 315 in Patent Document 1 and represented by the formula A1, was used. It is known that the compound has a good human c-Mpl-introduced Ba/F3 cell proliferative activity as disclosed in Table 1 of Patent Document 1.
a) Construction of Human c-Mpl Receptor Expression Vector
A human c-mpl receptor gene (GenBank Accession No. M90102.1) was introduced into an expression vector pEF-BOS (Nucleic Acids Res. 18, 5322, 1990).
b) Construction of Cell Stably Expressing Human c-Mpl Receptor
A human c-Mpl receptor expression vector was introduced into a Ba/F3 cell (RIKEN BRC: RCB0805). For the introduction, an electroporation method was used. pEF-BOS-c-mpl (10 μg), pSV2bsr (1 μg, Kaken Pharmaceutical Co., Ltd.) and 1×10^7 Ba/F3 cells were put into a cuvette having a gap width of 0.4 cm, and electroporated under the conditions of 1.5 kV (25 μF) by a Gene Pulser (registered trademark) (BioRad). The cells were cultured in an RPMI-1640 culture medium containing 0.5% WEHI conditioned media (BD Biosciences) and 10% fetal bovine serum for 3 days, and then cultured in an RPMI-1640 culture medium, to which 10 μg/mL blasticidin had been further added, for 30 days to acquire a drug-resistant clone.
c) Measurement of Cell Proliferative Activity
The cells obtained in b) above was cultured in an RPMI-1640 culture medium containing 0.5% WEHI conditioned media, 10% fetal bovine serum, and used. On the day before the experiment, test substances (final concentration of 100 nM to 10 μM) which had been dissolved in a culture medium for assay (RPMI-1640 culture medium containing 10% fetal bovine serum) were added to a 384-well plate (Lot No. 781185, Greiner Bio-One). The cells in the culture medium that had been replaced with a culture medium for assay were dispensed into a 384-well plate, to which the test substances had been added in advance, to 1×10^4 cells/well, and cultured at 37° C. and 5% CO2 overnight. On the experiment day, a solution of a Cell Counting Kit (Dojindo Laboratories) was added to each well of the 384-well plate and cultured at 37° C. and 5% CO2 for about 5 hours. Thereafter, the absorbance (absorption wavelength of 450 nm) of each well was measured using Safire^2™ (TECAN) and used as the index of the number of cells. Further, as a negative control, a well in which the test substance had been not added was prepared.
The absorbance of the well without the test substance was set to 0%, and the absorbance in the case where the positive control was added at a final concentration of 1 μM was set to 100%. From the absorbance in the case where the test substance had been added, a cell proliferation rate (%) was calculated. From the obtained results, the test substance concentration showing 30% proliferation was calculated as an EC30 value by a logistic regression method.

Counter-ions that a name gives are not always drawn.

For the compound `CCCOc1ccc(-c2nc(NC(=O)c3cnc(N4CCC(C(=O)O)CC4)cn3)sc2CN2CCC[C@H]2CC)cc1C(F)(F)F` [Example 1, 1-{5-[(5-{[(2R)-2-ethylpyrrolidin-1-yl]methyl}-4-[4-propoxy-3-(trifluoromethyl)phenyl]-1,3-thiazol-2-yl)carbamoyl]pyrazin-2-yl}piperidine-4-carboxylic acid dihydrochloride], the activity at 10 µM with isolated rat bladder is 132%. Besides, at human c-Mpl receptor, the “Test Example 2 EC30” value was greater than 10 µM. In the case of `COc1cc(-c2nc(NC(=O)c3cnc(N4CCC(C(=O)O)CC4)cn3)sc2CN2CCCC[C@H]2C)cc(C(F)(F)F)c1` [Example 2, 1-{5-[(4-[3-methoxy-5-(trifluoromethyl)phenyl]-5-{[(2R)-2-methylpiperidin-1-yl]methyl}-1,3-thiazol-2-yl)carbamoyl]pyrazin-2-yl}piperidine-4-carboxylic acid dihydrochloride], the “Test Example 2 EC30” value on human c-Mpl receptor is greater than 10 µM. `Cc1cc(OC(F)(F)F)cc(-c2nc(NC(=O)c3cnc(N4CCC(F)(C(=O)O)CC4)cn3)sc2CN2CCC[C@H]2C)c1` [Example 3, 4-fluoro-1-{5-[(5-{[(2R)-2-methylpyrrolidin-1-yl]methyl}-4-[3-methyl-5-(trifluoromethoxy)phenyl]-1,3-thiazol-2-yl)carbamoyl]pyrazin-2-yl}piperidine-4-carboxylic acid dihydrochloride]: the “Test Example 2 EC30” value at human c-Mpl receptor was found to be 4.8 µM. Regarding `C[C@@H]1CCCN1Cc1sc(NC(=O)c2cnc(N3CCC(C(=O)O)CC3)cn2)nc1-c1ccc(N(C)C)c(C(F)(F)F)c1` [Example 11], the “Test Example 2 EC30” value at human c-Mpl receptor was greater than 10 µM.

As to `CCCC1CCCN1Cc1sc(NC(=O)c2cnc(N3CCC(C(=O)O)CC3)cn2)nc1-c1ccc(OC(C)C)c(C(F)(F)F)c1` (centres unmarked) [Example 19], the activity at 10 µM in the assay on isolated rat bladder was found to be 124%. Further, the “Test Example 2 EC30” value at human c-Mpl receptor was greater than 10 µM. `CC(C)Oc1ccc(-c2nc(NC(=O)c3cnc(N4CCC(C(=O)O)CC4)cn3)sc2CN2CCCC(C)(C)C2)cc1C(F)(F)F` [Example 20]: the “Test Example 2 EC30” value on human c-Mpl receptor was greater than 10 µM. `CC[C@@H]1CCCN1Cc1sc(NC(=O)c2cnc(N3CCC(C(=O)O)CC3)cn2)nc1-c1ccc(OCCCOC)c(C(F)(F)F)c1` [Example 21]: at human c-Mpl receptor, the “Test Example 2 EC30” value was greater than 10 µM. With `CCCOc1ccc(-c2nc(NC(=O)c3cnc(N4CCC(C(=O)O)CC4)cn3)sc2CN2CCCC(C)(C)C2)cc1C(F)(F)F` [Example 27], the “Test Example 2 EC30” value on human c-Mpl receptor was greater than 10 µM. The same measure, in the same setting: then `COCCN(Cc1sc(NC(=O)c2cnc(N3CCC(C(=O)O)CC3)cn2)nc1-c1cc(C(F)(F)F)cc(C(F)(F)F)c1)CC(C)C` [Example 38], with greater than 10 µM. Turning to `CCOC[C@@H]1CCCN1Cc1sc(NC(=O)c2cnc(N3CCC(C(=O)O)CC3)cn2)nc1-c1cc(F)c(OC)c(Cl)c1` [Example 69], in the assay on isolated rat bladder, the activity at 10 µM was determined as 152%. Besides, on human c-Mpl receptor, the “Test Example 2 EC30” value is greater than 10 µM.

As to `CCOC[C@@H]1CCCN1Cc1sc(NC(=O)c2cnc(N3CCC(C(=O)O)CC3)cn2)nc1-c1cc(F)c(OC)c(C(F)(F)F)c1` [Example 84], the activity at 10 µM in the assay with isolated rat bladder was 140%. For the same compound, the “Test Example 2 EC30” value on human c-Mpl receptor is greater than 10 µM.

For the compound `COc1c(Cl)cc(-c2nc(NC(=O)c3cnc(N4CCC(C(=O)O)CC4)cn3)sc2CN2CCC[C@H]2C)cc1Cl` [Example 92], in the assay on isolated rat bladder, the activity at 10 µM was found to be 132%. In addition, the “Test Example 2 EC30” value on human c-Mpl receptor was greater than 10 µM. In the case of `CC[C@@H]1CCCN1Cc1sc(NC(=O)c2cnc(N3CCC(F)(C(=O)O)CC3)cn2)nc1-c1ccc(OC)c(C(F)(F)F)c1` [Example 125], the “Test Example 2 EC30” value at human c-Mpl receptor was greater than 10 µM.

As for `C[C@@H]1CCCN1Cc1sc(NC(=O)c2cnc(N3CCC(F)(C(=O)O)CC3)cn2)nc1-c1cc(F)cc(C(F)(F)F)c1` [Example 128], on human c-Mpl receptor, the “Test Example 2 EC30” value worked out at 8.4 µM. The same measure, in the same setting: the same measure for `C[C@@H]1CCCN1Cc1sc(NC(=O)c2cnc(N3CCC(O)(C(=O)O)CC3)cn2)nc1-c1cc(Cl)cs1` [Example 129]: 0.77 µM; for `C[C@@H]1CCCN1Cc1sc(NC(=O)c2cnc(N3CCC(F)(C(=O)O)CC3)cn2)nc1-c1ccc(F)c(C(F)(F)F)c1` [Example 133]: 1.1 µM. `C[C@@H]1CCCCN1Cc1sc(NC(=O)c2cnc(N3CCC(C(=O)O)CC3)cn2)nc1-c1cc(Cl)cs1` [Example 142]: the “Test Example 2 EC30” value on human c-Mpl receptor was determined as 0.38 µM. The same measure, in the same setting: then `CCCN(CCOC)Cc1sc(NC(=O)c2cnc(N3CCC(C(=O)O)CC3)cn2)nc1-c1cc(Cl)cs1` [Example 146], with 0.82 µM. Same read-out and setting: the same measure for `C[C@@H]1CCCN1Cc1sc(NC(=O)c2cnc(N3CCC(C(=O)O)CC3)cn2)nc1-c1cc(F)cc(C(F)(F)F)c1` [Example 150]: greater than 10 µM; for `COCCN(Cc1sc(NC(=O)c2cnc(N3CCC(C(=O)O)CC3)cn2)nc1-c1cc(Cl)cs1)CC(C)C` [Example 152]: 0.58 µM.

For the compound `CC[C@@H]1CCCN1Cc1sc(NC(=O)c2cnc(N3CCC(C(=O)O)CC3)cn2)nc1-c1cc(Cl)cs1` [Example 196], in the assay with isolated rat bladder, the activity at 10 µM was determined as 125%. `CCOc1ccc(-c2nc(NC(=O)c3cnc(N4CCC(C(=O)O)CC4)cn3)sc2CN2CCC[C@H]2C)cc1C(F)(F)F` [Example 200]: the “Test Example 2 EC30” value on human c-Mpl receptor was greater than 10 µM. On to `CCOc1ccc(-c2nc(NC(=O)c3cnc(N4CCC(C(=O)O)CC4)cn3)sc2CN2CCC[C@H]2CC)cc1C(F)(F)F` [Example 203], for which the “Test Example 2 EC30” value at human c-Mpl receptor is greater than 10 µM.

As for `O=C(Nc1nc(-c2ccc(OCCCF)c(C(F)(F)F)c2)c(CN2CCC[C@H]2C(F)(F)F)s1)c1cnc(N2CCC(C(=O)O)CC2)cn1` [Example 204], the “Test Example 2 EC30” value at human c-Mpl receptor is greater than 10 µM.
